# Source: paper PMC8654833 (Scientific Reports, 2021)
# Legend:
# [1] = target: T1, 5-HT1B (Homo sapiens, UniProt P28222); experiment: Radioligand binding competition dose-response (Euroscreen), 5-HT1B
# T1 construct: Euroscreen FAST (contract assay)
# Procedure: (§1) This study included binding assays (87 GPCR targets), measured as % of binding inhibition of a reference radioligand, as well as uptake and enzyme assays (19 targets), the latter measured as % inhibition of control enzyme activity. […] It was performed by radioligand binding competition by Euroscreen (Euroscreen FAST, Belgium). The following nanomolar concentrations were tested in duplicate: 0.001, 0.01, 0.1, 1, 10, 100, 1000, 10,000. Dose–response curves were fitted with the least squares method. IC50 results are shown as pIC50, corresponding to the negative log10 of IC50 in molar.
# [2] = tested on: microglia related genes in the cervical and thoracic spinal cord; experiment: RT-qPCR of microglia related genes in spinal cord; format: in vivo, Sod1^G86R mice
# Procedure: We then sought to characterize whether BW modulated microglial physiology and used RT-qPCR to measure microglia related genes in the cervical and thoracic spinal cord of animals treated with either vehicle or 3 mg/kg/d of BW. […] We next wanted to see if these changes in gene expression were accompanied by modification of microglial activation in spinal cord of treated mice. Iba1 + cells were classified in 4 different activation states (resting, activated, phagocytic or dystrophic).
# Total RNA was extracted from the cervical and thoracic spinal cord of end stage mice using TRIzol (Invitrogen). Reverse transcription was performed using 1 μg of RNA and the iScript cDNA synthesis kit (BioRad). IQ SYBR green Supermix (BioRad) was used to perform RT-PCR. Data were normalized with GeNorm software (RRID: SCR_006763)[25]. Three reporter genes were used for normalization: POL2, TBP and Actin. Oligonucleotide primers are provided in Supplementary Table S1.
# [3] = target: 5-HT2B (Homo sapiens, UniProt P41595); experiment: biochemical; settings: read-out: %Binding inhibition at 10 µM, dose-response study, maximal concentration 10 µM, [3H]mesulergine
# [4] = target: T2, NET (Homo sapiens, UniProt P23975); experiment: Radioligand binding competition dose-response (Euroscreen), norepinephrine transporter; settings: dose-response study, maximal concentration 10 µM, 3H]nisoxetine
# T2 construct: Euroscreen FAST (contract assay)
# Procedure: as §1
# [5] = target: T3, 5-HT1A (Homo sapiens, UniProt P08908); experiment: Single-concentration radioligand binding screen (Eurofins Cerep), 5-HT1A; settings: single concentration 10 µM screen, [3H]8-OH-DPAT
# T3 construct: Euroscreen FAST (contract assay)
# T3 sequence (P08908 1-422): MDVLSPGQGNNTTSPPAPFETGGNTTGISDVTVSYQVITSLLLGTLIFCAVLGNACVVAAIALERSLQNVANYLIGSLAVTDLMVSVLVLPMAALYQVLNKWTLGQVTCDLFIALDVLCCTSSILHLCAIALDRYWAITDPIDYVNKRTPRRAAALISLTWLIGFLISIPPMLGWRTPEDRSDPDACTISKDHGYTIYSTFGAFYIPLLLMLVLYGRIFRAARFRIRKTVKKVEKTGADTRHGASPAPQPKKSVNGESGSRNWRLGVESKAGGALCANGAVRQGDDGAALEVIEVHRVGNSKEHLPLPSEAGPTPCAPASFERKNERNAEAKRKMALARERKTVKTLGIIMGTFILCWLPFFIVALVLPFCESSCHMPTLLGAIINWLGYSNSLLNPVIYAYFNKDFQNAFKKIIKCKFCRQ
# Procedure: as §1
# [6] = target: T4, 5-HT5A (Homo sapiens, UniProt P47898); experiment: Radioligand binding competition dose-response (Euroscreen), 5-HT5A
# T4 construct: Euroscreen FAST (contract assay)
# Procedure: as §1
# [7] = target: T3, 5-HT1A; experiment: Radioligand binding competition dose-response (Euroscreen), 5-HT1A
# Procedure: as §1
# [8] = target: T5, 5-HT2C (Homo sapiens, UniProt P28335); experiment: Single-concentration radioligand binding screen (Eurofins Cerep), 5-HT2C; settings: single concentration 10 µM screen, [3H]mesulergine
# T5 construct: Euroscreen FAST (contract assay)
# T5 sequence (P28335 33-458): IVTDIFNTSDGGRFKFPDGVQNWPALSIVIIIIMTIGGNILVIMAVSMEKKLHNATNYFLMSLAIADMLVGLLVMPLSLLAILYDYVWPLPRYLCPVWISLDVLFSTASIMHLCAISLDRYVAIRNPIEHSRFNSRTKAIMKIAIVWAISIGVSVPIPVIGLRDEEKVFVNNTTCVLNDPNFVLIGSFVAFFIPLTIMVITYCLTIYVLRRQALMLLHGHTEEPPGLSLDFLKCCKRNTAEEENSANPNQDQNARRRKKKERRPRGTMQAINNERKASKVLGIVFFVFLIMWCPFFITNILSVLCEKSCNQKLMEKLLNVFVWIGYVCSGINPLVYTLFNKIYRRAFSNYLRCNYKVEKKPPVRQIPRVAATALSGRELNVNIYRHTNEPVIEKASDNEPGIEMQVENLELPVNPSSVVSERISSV
# Procedure: as §1
# [9] = target: Ca^2+ channel, ds; experiment: Radioligand binding competition dose-response (Euroscreen), Ca2+ channel diltiazem site
# Procedure: as §1
# [10] = target: T6, DAT (Homo sapiens, UniProt Q01959); experiment: Radioligand binding competition dose-response (Euroscreen), dopamine transporter
# T6 construct: Euroscreen FAST (contract assay)
# Procedure: as §1
# [11] = target: T2, NET; experiment: Single-concentration radioligand binding screen (Eurofins Cerep), norepinephrine transporter; settings: single concentration 10 µM screen, 3H]nisoxetine
# Procedure: as §1
# [12] = tested on: mitral valve; experiment: Mitral valve thickness by histology (hematoxylin/eosin); format: in vivo; settings: Sod1^G86R mice, 3 mg/kg/d; vehicle 57.7 µm
# Procedure: To this aim, we measured mitral valve thickness using histology (Fig. 3). […] The lack of beneficial effect of BW on survival and motor function is not due to the developpement of valvulopathy nor cardiac failure. Thus, BW is not protective in Sod1^G86R mice independently of any potential cardiotoxicity.
# After dissection and rinse with PBS 1X, hearts were fixed for 72 h in formaldehyde 4% solution. After paraffin inclusion, cuts of 4 µm thickness were made. Hematoxylin/eosin staining was performed on these cuts. Inclusion and staining were performed by the department of histopathology and embyology of the mouse clinical institute (ICS, Illkirch-Graffenstaden). Valve imaging was performed with a Leica DFC425C camera mounted on a microscope Leica DM750, at × 10 magnification (cat# 506228, 10x/0.25 HI PLAN ∞/−), with LAS V4.8 software (Leica Microsystems). […] Average thickness was determined by rapporting the area on the length of the leaflet.
# [13] = target: T7, 5-HT7 (Homo sapiens, UniProt P34969); experiment: Radioligand binding competition dose-response (Euroscreen), 5-HT7
# T7 construct: Euroscreen FAST (contract assay)
# Procedure: as §1
# [14] = dose-response study, maximal concentration 10 µM, [3H]LSD
# T1 sequence (P28222 whole entry, species assumed): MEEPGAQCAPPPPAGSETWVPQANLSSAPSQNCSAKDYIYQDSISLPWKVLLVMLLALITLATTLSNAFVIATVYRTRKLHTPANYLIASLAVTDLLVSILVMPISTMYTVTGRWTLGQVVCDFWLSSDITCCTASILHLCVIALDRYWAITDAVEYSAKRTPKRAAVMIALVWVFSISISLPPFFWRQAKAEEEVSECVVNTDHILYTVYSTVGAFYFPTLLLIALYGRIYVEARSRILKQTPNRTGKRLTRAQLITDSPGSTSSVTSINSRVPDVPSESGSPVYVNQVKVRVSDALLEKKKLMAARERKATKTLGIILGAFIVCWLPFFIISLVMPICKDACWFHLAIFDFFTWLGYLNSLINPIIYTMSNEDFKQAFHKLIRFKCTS
# T2 sequence (P23975 whole entry): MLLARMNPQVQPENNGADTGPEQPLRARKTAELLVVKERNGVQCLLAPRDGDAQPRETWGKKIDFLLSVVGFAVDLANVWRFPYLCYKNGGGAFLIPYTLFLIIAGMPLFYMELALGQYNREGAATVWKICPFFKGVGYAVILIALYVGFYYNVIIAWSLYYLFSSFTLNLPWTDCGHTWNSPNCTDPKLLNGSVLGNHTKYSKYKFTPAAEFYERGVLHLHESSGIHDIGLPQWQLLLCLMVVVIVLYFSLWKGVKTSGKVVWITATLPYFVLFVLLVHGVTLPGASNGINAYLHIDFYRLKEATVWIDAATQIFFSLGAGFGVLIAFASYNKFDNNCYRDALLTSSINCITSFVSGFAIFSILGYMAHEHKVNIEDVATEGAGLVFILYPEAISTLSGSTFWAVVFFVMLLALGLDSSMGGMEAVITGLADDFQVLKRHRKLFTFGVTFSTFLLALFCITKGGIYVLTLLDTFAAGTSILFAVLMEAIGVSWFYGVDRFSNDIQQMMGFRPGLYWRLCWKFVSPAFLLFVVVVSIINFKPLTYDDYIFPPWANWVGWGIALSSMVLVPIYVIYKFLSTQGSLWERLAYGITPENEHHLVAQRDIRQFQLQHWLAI
# T7 sequence (P34969 whole entry, species assumed): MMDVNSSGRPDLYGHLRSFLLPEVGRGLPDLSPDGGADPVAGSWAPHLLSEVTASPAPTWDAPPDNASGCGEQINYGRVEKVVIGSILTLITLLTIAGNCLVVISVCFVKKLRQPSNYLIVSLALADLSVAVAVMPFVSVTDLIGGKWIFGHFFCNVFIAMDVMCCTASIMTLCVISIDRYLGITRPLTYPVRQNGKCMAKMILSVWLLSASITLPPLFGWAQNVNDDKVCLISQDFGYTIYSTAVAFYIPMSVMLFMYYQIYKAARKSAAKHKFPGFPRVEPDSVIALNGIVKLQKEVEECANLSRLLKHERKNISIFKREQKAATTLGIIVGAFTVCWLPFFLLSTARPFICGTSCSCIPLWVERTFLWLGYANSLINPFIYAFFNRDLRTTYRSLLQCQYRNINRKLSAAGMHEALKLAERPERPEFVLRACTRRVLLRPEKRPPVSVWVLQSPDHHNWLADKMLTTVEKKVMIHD
# T6 sequence (Q01959 whole entry, species assumed): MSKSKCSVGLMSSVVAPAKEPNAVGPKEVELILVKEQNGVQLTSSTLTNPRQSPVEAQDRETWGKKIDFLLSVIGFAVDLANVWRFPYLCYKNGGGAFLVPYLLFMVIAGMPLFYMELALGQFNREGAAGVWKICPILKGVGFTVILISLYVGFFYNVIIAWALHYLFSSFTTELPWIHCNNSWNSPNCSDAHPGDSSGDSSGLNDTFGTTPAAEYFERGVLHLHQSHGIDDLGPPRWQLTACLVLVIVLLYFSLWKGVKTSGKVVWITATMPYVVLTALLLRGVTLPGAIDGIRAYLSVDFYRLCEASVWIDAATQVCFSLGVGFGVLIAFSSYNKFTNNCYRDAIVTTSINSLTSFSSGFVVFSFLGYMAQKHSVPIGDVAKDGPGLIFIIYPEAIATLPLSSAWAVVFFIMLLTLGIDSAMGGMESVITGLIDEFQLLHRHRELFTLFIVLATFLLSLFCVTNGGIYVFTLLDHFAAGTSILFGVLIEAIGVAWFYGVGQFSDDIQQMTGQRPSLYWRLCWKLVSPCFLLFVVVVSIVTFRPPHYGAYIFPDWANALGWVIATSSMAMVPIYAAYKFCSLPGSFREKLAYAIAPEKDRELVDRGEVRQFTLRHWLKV
# T4 sequence (P47898 whole entry, species assumed): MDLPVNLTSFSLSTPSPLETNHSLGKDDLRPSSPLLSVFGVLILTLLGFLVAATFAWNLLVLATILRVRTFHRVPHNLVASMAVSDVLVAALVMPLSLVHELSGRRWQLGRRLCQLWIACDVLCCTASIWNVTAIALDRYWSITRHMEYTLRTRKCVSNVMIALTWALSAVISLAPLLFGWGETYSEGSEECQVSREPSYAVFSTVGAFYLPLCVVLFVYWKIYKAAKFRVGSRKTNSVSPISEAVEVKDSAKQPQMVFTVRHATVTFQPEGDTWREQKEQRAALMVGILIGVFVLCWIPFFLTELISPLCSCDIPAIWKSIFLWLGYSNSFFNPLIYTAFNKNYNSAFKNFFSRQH
# Chain of 5-HT2B (P41595 whole entry, species assumed): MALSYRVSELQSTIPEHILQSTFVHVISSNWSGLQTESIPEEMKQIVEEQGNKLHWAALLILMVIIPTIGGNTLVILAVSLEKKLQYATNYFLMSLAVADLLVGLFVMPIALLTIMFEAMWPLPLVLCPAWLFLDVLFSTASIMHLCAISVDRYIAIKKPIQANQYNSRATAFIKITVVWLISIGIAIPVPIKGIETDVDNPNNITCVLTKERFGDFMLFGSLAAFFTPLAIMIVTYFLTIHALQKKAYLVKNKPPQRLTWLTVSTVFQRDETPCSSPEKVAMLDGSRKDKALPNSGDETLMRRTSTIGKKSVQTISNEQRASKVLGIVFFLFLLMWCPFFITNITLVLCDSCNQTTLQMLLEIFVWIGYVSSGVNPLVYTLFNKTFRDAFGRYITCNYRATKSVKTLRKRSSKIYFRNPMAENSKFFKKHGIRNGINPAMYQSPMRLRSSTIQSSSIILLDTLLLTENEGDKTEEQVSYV
smiles,measurement,setting,value
"CC(N)Cc1c[nH]c2ccc(OCc3cccs3)cc12 (stereo not shown) [BW, 1-[5-(thiophen-2-ylmethoxy)-1H-indol-3-yl]propan-2-amine]",IC50,[1],182 nM
same,%Binding inhibition at 10 µM,"[1]; dose-response study, maximal concentration 10 µM, [3H]5-CT, 10 µM",101.39%
same,inhibition at 10 µM,"[1]; read-out: %Binding inhibition at 10 µM, dose-response study, maximal concentration 10 µM, [3H]5-CT",100%
same,Hexb upregulation in Sod1^G86R mice,"[2]; 3 mg/kg/d, spinal cord RT-qPCR",partially prevented
same,disease-associated upregulation of Nox2,"[2]; 3 mg/kg/d, spinal cord RT-qPCR",partially prevented
same,disease-associated upregulation of Tyrobp (DAP12),"[2]; 3 mg/kg/d, spinal cord RT-qPCR",partially prevented
same,upregulation of disease-associated microglia marker Apoe,"[2]; 3 mg/kg/d, spinal cord RT-qPCR",blunted the upregulation
same,upregulation of disease-associated microglia marker Cd9,"[2]; 3 mg/kg/d, spinal cord RT-qPCR",blunted the upregulation
same,upregulation of disease-associated microglia marker Cst7,"[2]; 3 mg/kg/d, spinal cord RT-qPCR",blunted the upregulation
same,upregulation of disease-associated microglia marker Lpl,"[2]; 3 mg/kg/d, spinal cord RT-qPCR",blunted the upregulation
same,Tmem119 expression,[2]; Sod1^G86R mice with BW treatment,downregulated
same,inhibition at 10 µM,[3],100%
same,inhibition at 10 µM,[4],74.4%
same,inhibition at 10 µM,[5],91.8%
same,IC50,[6],1380 nM
same,inhibition at 10 µM,[6]; [14],84.3%
same,IC50,[7],589 nM
same,inhibition at 10 µM,"[7]; dose-response study, maximal concentration 10 µM, [3H]8-OH-DPAT",95%
same,%Binding inhibition at 10 µM,"[7]; dose-response study, maximal concentration 10 µM, [3H]8-OH-DPAT, 10 µM",95.26%
same,inhibition at 10 µM,[8],97.8%
same,pIC50,[9]; [3H]diltiazem competition,6.11
same,%Binding inhibition at 10 µM,"[9]; dose-response study, maximal concentration 10 µM, [3H]diltiazem",35.80%
same,IC50,[10],741 nM
same,inhibition at 10 µM,[10]; read-out: %Binding inhibition at 10 µM,73.2%
same,inhibition at 10 µM,[11],68.7%
same,mitral valve thickness,[12],60.2 µm
same,IC50,[13],1020 nM
same,inhibition at 10 µM,[13]; [14],91.8%
